Laboratory results as given in publication PMC8424097, “Population Pharmacokinetics of Polymyxin B and Dosage Optimization in Renal Transplant Patients” (Frontiers in Pharmacology, 2021).
Positions of bridges follow the written chain, without caps; N, C: chain ends. Non-standard residues stand in square brackets, D forms with d. Residues, ends and D or L forms follow the SMILES beside them. *: point of attachment. X1 = CC[C@H](C)CCCCC(=O)*; Dab = NCC[C@H](N)C(=O)O

How the values were obtained:
[1] = Adverse effects (nephrotoxicity, neurotoxicity, skin) during polymyxin B treatment of renal transplant patients; format: in vivo, human
Method: (§1) The following data were collected: age; sex; weight; maintenance doses; time and route of administration; site of infection; microbes; comorbidities; liver function indexes, such as alanine aminotransferase (ALT), aspartate aminotransferase (AST), total bilirubin (TBIL), direct bilirubin (DBIL), and albumin (ALB); and renal function indexes, such as uric acid (UA), blood urea nitrogen (BUN), and CrCL. CrCL was calculated according to the Cockcroft-Gault equation ([Janmahasatian et al., 2005]). CrCL ≤80 ml/min was defined as renal dysfunction, and when the basic CrCL decreased by more than 25%, nephrotoxicity was defined. Risk, injury, failure, loss and end-stage renal disease criteria were used to define acute kidney injury (AKI) in patients ([Bellomo et al., 2004]). Neurotoxicity was defined when any neurological symptoms or signs occurred during polymyxin B treatment, including dizziness, vertigo, visual disturbances, confusion, hallucinations, ataxia, seizures, and facial and peripheral paresthesia. The observed AUC0–24h of patients was calculated by daily dose/CL.

[2] = cited from earlier work
Method: According to the results from previous pharmacokinetics and pharmacodynamics (PK/PD) studies, the bactericidal activity of polymyxin B is best correlated with the area under the concentration-time curve over 24 h in steady state divided by the minimum inhibitory concentration (AUC0–24h/MIC) ([Mohamed et al., 2012]). Moreover, the latest guidelines recommended a target plasma AUC0–24h of 50–100 mg⋅h/L to achieve bactericidal activity against an isolate with an MIC of 2 mg/L (the EUCAST and CLSI breakpoints) ([Tsuji et al., 2019]). However, due to the lack of rigorous PK data, the optimal dosing ... || Monte Carlo simulations (n = 1,000) were conducted using metrics to determine the PTA for fAUC0–24h/MIC ≥20 at various MICs (0.5–2 mg/L) in patients with different renal functions (CrCL: 10–80 ml/min), where f is the unbound fraction of polymyxin B (assumed to be 0.42) ([Sandri et al., 2013b]). The dosages were selected according to the most commonly used regimens in renal transplant patients. The regimens were as follows with a 2 h infusion: a single 50 mg loading dose followed by either 30 mg every 12 h or 40 mg every 12 h, either a loading dose of 75 mg or 100 mg followed by 50 mg every 12 ... || In the present study, a one-compartment model was used to describe the original data, which was consistent with some of the previous studies ([Kubin et al., 2018]; [Manchandani et al., 2018]). […] This difference might be mainly due to impaired renal function in the renal transplant patients in this study (CrCL: 20.89 ml/min, range: 4.29–78.84 ml/min) because we identified CrCL as a significant predic ... || (+ 1 further places)

[3] = Population pharmacokinetic analysis of polymyxin B in renal transplant patients (plasma, HPLC-MS/MS, Phoenix NLME); format: in vivo, human
Method: This prospective study was approved by the Ethics Committee of the Second Xiangya Hospital, Central South University. Informed consent was obtained from all patients or legal representatives of the patients (No. ChiCTR1900022231). Renal transplant patients (aged ≥18 years) who received intravenous polymyxin B (sulfate; Polymyxin B for Injection, China, SPH NO.1 BIOCHEMICAL and PHARMACEUTICAL CO. LTA) for ≥48 h were enrolled. Patients were excluded if they were pregnant, allergic or intolerant to polymyxin B and lacked the necessary data (weight or some renal function index).
All patients accepted at least 3 days of polymyxin B infusion, and the administration interval of polymyxin B was 12 h with an infusion duration of 60–120 min. One to six blood samples (2 mL) were randomly collected 30 min before the sixth dose of polymyxin B and at 0, 0.5, 1, 2, 4, 6, and 8 h after the end of infusion. Blood samples were centrifuged for 10 min (3,400 rpm/min), and the supernatant was immediately stored at −80°C until analysis. A validated high-performance liquid chromatography-tandem mass spectrometry (HPLC-MS/MS) was used to measure the concentrations of polymyxin B1 and polymyxin B2 ([Thomas et al., 2012]). Briefly, a Shim-pack GIST C18 (2.1*100 mm, 3 μm, Shimadzu) column was used. Gradient chromatography was performed with solvent A (0.1% formic acid in water) and solvent B (acetonitrile). The following gradient elution was performed at a total flow of 0.6 ml/min for analyte elution: 10–60% B from 0 to 5 min, 60%–90% B from five to 5.10 min, 90% from 5.10 to 6 min, 90%–10% B from six to 6.10 min, and 10% B from 6.10 to 10.0 min. The elution time was 10 min, and the injection volume was 2 μL. The interday precision was <12%, the intraday precision was <9%, and the accuracy ranged from 96.1 to 110.4%. The limit of quantification was 0.03 mg/L.
as §1
The concentration-time data of polymyxin B were analyzed with a nonlinear mixed effect modeling approach with the Phoenix NLME program (version 8.1. Pharsight, A Certara Company, United States of America). The first-order conditional estimation-extended least square method (FOCE-ELS) was used to develop the PPK model. One- and two-compartment models with linear elimination were evaluated for structure model selection based on the objective function value (OFV) and Akaike information criterion (AIC). The interindividual variability of PK parameters was described by an exponential error model. Residual variability was selected with an additive error model, proportional error model and combined error model. The covariates considered for the modeling included age, weight, ALT, AST, TBIL, DBIL, ALB, BUN, UA, and CrCL. The median of the covariate was used to normalize the covariate, and a stepwise method was used to screen the covariates. […]

[4] = rats, 6 h after dosing; ref Manchandani et al., 2015; cited from earlier work
Method: Polymyxin B is mainly distributed in the kidney, and the renal tissue/serum concentration ratio of polymyxin B was 19.62 at 6 h after dosing in rats ([Manchandani et al., 2015]). Therefore, the variation in polymyxin B accumulation in the kidney might be responsible for the differences in the apparent volume of distribution. In addition t ...

[5] = cited from earlier work; remark: listed apart in the source
Text: It is well known that nephrotoxicity is the major adverse effect of polymyxin B, with a wide range from 26.9 to 60% ([Plachouras et al., 2009]; [Akajagbor et al., 2013]; [Dubrovskaya et al., 2015]; [Rigatto et al., 2015]). In the present study, however, the incidence of AKI was extremely low, with only five patients showing nephrotoxicity. As polymyxin B-induced nephrotoxicity is a dose-limiting adverse effect, our result seemed to be consistent with the previous finding that patients with renal impairment might have a lower incidence of AKI due to the decreased percentage of tubular reabsorpt ... || The incidence of neurotoxicity was much higher than noted before (62.0 vs 7%) and has become the dose-limiting factor in our study ([Arnold et al., 2007]). […] Considering their similar structures, this mechanism might also fit polymyxin B; therefore, the higher exposure of p ...

[6] = of 50 renal transplant patients
[7] = patients of previous studies, ref Kubin et al., 2018, Manchandani et al.

Question: Which incidence of dermatitis ([1]; 50 renal transplant patients) does the source give for `CC[C@H](C)CCCCC(=O)N[C@@H](CCN)C(=O)N[C@H](C(=O)N[C@@H](CCN)C(=O)N[C@H]1CCNC(=O)[C@H]([C@@H](C)O)NC(=O)[C@H](CCN)NC(=O)[C@H](CCN)NC(=O)[C@H](CC(C)C)NC(=O)[C@@H](Cc2ccccc2)NC(=O)[C@H](CCN)NC1=O)[C@@H](C)O` [polymyxin B] (X1-[Dab]T[Dab][Dab][Dab][dF]L[Dab][Dab]T; lactam 4-C) here?
Answer: 34.0%

Question: What about the incidence of neurotoxicity ([1]; 50 renal transplant patients) of the same compound?
Answer: 62.0%

Question: And the “nephrotoxicity classified as injury (RIFLE)” value [1, 6]?
Answer: one

Question: And the “nephrotoxicity classified as risk (RIFLE)” value [1, 6]?
Answer: four

Question: What about the patients with dermatitis [1, 6] of the same compound?
Answer: Seventeen

Question: What about the patients with dizziness [1, 6] of the same compound?
Answer: three

Question: What about the “patients with facial and peripheral paresthesia” value [1, 6] of the same compound?
Answer: 29 patients

Question: And the “patients with nephrotoxicity (basic CrCL decreased by more than 25%)” value [1, 6]?
Answer: five

Question: What about the “patients with neurotoxicity of different degrees” value [1, 6] of the same compound?
Answer: 31 patients

Question: What about the patients with seizures [1, 6] of the same compound?
Answer: three

Question: What about the patients with pigmentation ([1]; of 50 renal transplant patients, all disappeared 1 month after withdrawal) of the same compound?
Answer: Seven

Question: What about the “days printed for the nephrotoxicity case classified as injury” value ([1]; renal transplant patients) of the same compound?
Answer: 11 days

Question: What about the “days printed for the nephrotoxicity cases (all five)” value ([1]; renal transplant patients) of the same compound?
Answer: 3 to 11 days

Question: What about the “days printed for the nephrotoxicity cases classified as risk” value ([1]; renal transplant patients) of the same compound?
Answer: 3 to 7 days

Question: What about the “CL reported in previous one-compartment models” value [2, 7] of the same compound?
Answer: 2.37 to 2.5 L/h

Question: What about the “V reported by previous studies” value [2, 7] of the same compound?
Answer: 34.3 to 34.4 L

Question: What about the “urinary recovery (range between patients)” value ([2]; previous study in patients, ref Sandri et al., 2013b) of the same compound?
Answer: 0.98–17.4%

Question: What about the “patients achieving the AUC0–24h target at the recommended dosage” value ([2]; ref Lakota et al., 2018) of the same compound?
Answer: 71%

Question: And the “unbound fraction f (assumed)” value ([2]; used for fAUC0–24h/MIC in the simulations, ref Sandri et al., 2013b)?
Answer: 0.42

Question: And the “CL, bootstrap median” value ([3]; bootstrap, 1000 resamples)?
Answer: 1.17 L/h

Question: And the “V, bootstrap median” value ([3]; bootstrap, 1000 resamples)?
Answer: 11.98 L

Question: What about the “Θ CrCL, bootstrap median” value ([3]; bootstrap, 1000 resamples) of the same compound?
Answer: 0.14

Question: What about the “mean AUC0–24h (observed)” value ([3]; calculated by daily dose/CL, mean ± SD, SD) of the same compound?
Answer: 74600 ± 17810 ng·h/mL

Question: What about the “Θ CrCL (exponent for CrCL as a covariate for CL), final model estimate” value ([3]; final PPK model) of the same compound?
Answer: 0.14

Question: And the Vd ([3]; human, intravenous q 12 h, one-compartment PPK model, 151 plasma samples from 50 patients, HPLC-MS/MS, read-out: V, final model estimate)?
Answer: 12.1 L

Question: And the clearance ([3]; human, intravenous q 12 h, one-compartment PPK model, typical value at CrCL 22.2 ml/min, 151 plasma samples from 50 patients, read-out: CL, final model estimate (converted))?
Answer: 19.7 mL/min

Question: And the “renal tissue/serum concentration ratio” value [4]?
Answer: 19.62

Question: What about the “incidence of neurotoxicity noted before” value ([5]; ref Arnold et al., 2007) of the same compound?
Answer: 7%

Question: And the “incidence of nephrotoxicity (range of previous reports)” value ([5]; ref Plachouras et al., 2009, Akajagbor et al., 2013, Dubrovskaya et al., 2015, Rigatto et al., 2015)?
Answer: 26.9 to 60%
